Experimental data published in US9937115B2, “Oral care compositions with improved flavor” (priority 2010, dated 2018).

How the values were obtained:
TRPA1 receptor [1] = target: T1, TRPA1 receptor (Homo sapiens, UniProt O75762); test: cell-based; conditions: for TRPA1 Direct addition: percentage of the control (allyl isothiocyanate) calcium count, material dissolved in DMSO at 100 micromolar, HEK cells with TRPA1;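 as to TRPA1 Pre-incubation: values above 100 mean more active than the control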
T1 construct: expressed in transfected cells; host or cells: HEK cell line
T1 sequence (O75762 whole entry): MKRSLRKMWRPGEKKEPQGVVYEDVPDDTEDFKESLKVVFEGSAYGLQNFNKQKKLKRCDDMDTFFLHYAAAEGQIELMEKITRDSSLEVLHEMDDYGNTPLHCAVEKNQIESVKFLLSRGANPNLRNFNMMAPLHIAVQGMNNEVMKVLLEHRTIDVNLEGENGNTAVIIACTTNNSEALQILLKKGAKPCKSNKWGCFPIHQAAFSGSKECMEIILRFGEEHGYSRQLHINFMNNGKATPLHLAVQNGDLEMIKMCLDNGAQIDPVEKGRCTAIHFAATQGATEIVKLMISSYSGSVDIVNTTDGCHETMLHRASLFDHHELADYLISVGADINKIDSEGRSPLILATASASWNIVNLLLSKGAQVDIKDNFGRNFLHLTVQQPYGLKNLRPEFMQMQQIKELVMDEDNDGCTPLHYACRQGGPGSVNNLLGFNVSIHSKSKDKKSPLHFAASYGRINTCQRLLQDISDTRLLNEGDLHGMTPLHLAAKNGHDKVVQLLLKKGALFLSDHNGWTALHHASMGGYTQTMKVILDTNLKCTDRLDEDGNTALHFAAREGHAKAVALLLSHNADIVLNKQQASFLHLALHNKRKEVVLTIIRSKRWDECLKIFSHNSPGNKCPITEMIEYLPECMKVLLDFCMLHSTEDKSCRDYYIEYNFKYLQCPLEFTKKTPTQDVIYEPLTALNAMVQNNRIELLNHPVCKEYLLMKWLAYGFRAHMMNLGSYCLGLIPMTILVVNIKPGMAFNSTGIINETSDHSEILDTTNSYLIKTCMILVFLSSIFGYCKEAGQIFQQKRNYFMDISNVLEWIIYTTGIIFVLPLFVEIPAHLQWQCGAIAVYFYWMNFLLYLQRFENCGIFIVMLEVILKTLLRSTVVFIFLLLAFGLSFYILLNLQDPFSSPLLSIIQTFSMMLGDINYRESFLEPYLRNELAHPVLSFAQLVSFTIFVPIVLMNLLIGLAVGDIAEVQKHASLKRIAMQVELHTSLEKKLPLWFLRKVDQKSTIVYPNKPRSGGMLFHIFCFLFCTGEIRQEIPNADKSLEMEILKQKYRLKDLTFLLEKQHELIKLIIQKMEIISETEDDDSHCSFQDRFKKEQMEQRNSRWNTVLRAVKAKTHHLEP
Outline: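 HEK cells expressing TRPA1 were treated with test compounds dissolved in DMSO at 100 micromolar, with allyl isothiocyanate as positive control. Agonism was read on a FLIPR as calcium-dye fluorescence counts above background. A TRPA1 activator was defined as giving at least 1000 counts above background at 1 mM.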

TRPA1 receptor [2] = target: T1, TRPA1 receptor; format: cell-based; conditions: percentage of the control (allyl isothiocyanate) calcium count, material dissolved in DMSO at 100 micromolar, HEK cells with TRPA1
[3] = Panelists brushed with dentifrice Formula Ia-Ie and rated reduction in soapy off taste and flavor character; format: in vivo; conditions: molecule incorporated in toothpaste Formula Ia-Ie; panelists n=4
Source text: Then, these materials were further screened in Test Formula Ia-Ie, by incorporating at the indicated level. After the toothpaste was made, a small group of panelists (n=4) brushed with the dentifrice and rated the reduction in soapy off taste and the flavor character the compound provided.

SMILES	TRPA1 Direct addition (TRPA1 receptor [1]) [%]	TRPA1 Pre-incubation (TRPA1 receptor [2]) [%]	% of AITC Receptor Activation (from Data in Table II) (TRPA1 receptor [1]; restated in Table III from Table II) [%]	Qualitative Team Evaluations (n = 4) [3]
CCC1OC(C)=C(O)C1=O (centres unmarked) [2-Ethyl-4-Hydroxy-5-Methyl-3(2) Furanone]	−1.06	78.56		
CCc1nc(C)cs1 [2-Ethyl-4-Methythiazole]	−1.38	62.39		
CCC(C)C=O (centres unmarked) [2-Methylbutraldehyde]	81.04	35.61		
Cc1ccc(C=O)c(O)c1 [2_Hydroxy-4-Methyl Benzaldehyde]	0.4	68.24		
CCC=CCCOC(=O)CC(C)C [3-Hexenyl-3-Methylbutanoate]	−1.61	88.62		
CCC(C)/C=C(\C=O)c1ccccc1 (centres unmarked) [4-Methyl-2-phenyl-2-hexenal, 4-Methyl-2-phenyl-2-hexenal]			132	Reduces the bitterness from alkyl phosphates, but it has a bitter character on its own
CC(=O)CCc1ccc(O)cc1 [4-P-hydroxyphenyl-2-butanone]	0.2	63.07		
Cc1nc(C)c(C)s1 [,2,4,5-Trimethythiazole]	−1.43	64.86		
COc1ccc(C(C)=O)cc1 [Acetanisole]	0.15	83.69		
C=CCCC(=O)/C=C/C1C(C)=CCCC1(C)C (stereo not drawn) [Allyl Alpha-Ionone]	0.55	64.99		
C/C=C\C(=O)C1C(C)=CCCC1(C)C (stereo not drawn) [Alpha-Damascone]	−2.88	96.58		
CC(=O)/C=C/C1C(C)=CCCC1(C)C (stereo not drawn) [Alpha-Ionone]	−0.9	111.19		
C/C(C=O)=C\c1ccccc1 [Alpha-Methyl-Trans-Cinnamaldehyde]	37.95	72.88		
CCCC(=O)OCc1ccc(OC)cc1 [Anisyl butyrate]	−0.03	112.61		
CC(=O)/C=C/C1=C(C)CCCC1(C)C [Beta Ionone]	−2.88	75.35		
CC1=C(/C=C/C(C)O)C(C)(C)CCC1 (stereo not drawn) [Beta-ionol]	−0.01	114.23		
CCCCOC(=O)C(C)OC(=O)CCC (centres unmarked) [Butyl Butyryllactate]	−1.54	39.69		

SMILES	TRPA1 Direct addition (TRPA1 receptor [1]) [%]	TRPA1 Pre-incubation (TRPA1 receptor [2]) [%]	% of AITC Receptor Activation (from Data in Table II) (TRPA1 receptor [1]; restated in Table III from Table II) [%]	Qualitative Team Evaluations (n = 4) [3]
C=C(C)C1CC=C(C)C(OC(=O)CC)C1 (centres unmarked) [Carvyl Propionate]	−0.57	105.07		
CC(C)=CCCC(C)CCO (centres unmarked) [Cironellol]	−1.03	51.22		
CC(=O)CCC1C(C)=CCCC1(C)C (stereo not drawn) [Dihydro-alpha-ionone]	0.11	108.18		
CC1=C(CCC(C)O)C(C)(C)CCC1 (stereo not drawn) [Dihydro-beta-ionol]	−0.33	97.15		
CCCc1ccc(O)c(OC)c1 [Dihydroeugenol]	0.07	103.71		
CCOC(=O)C1OC1(C)c1ccccc1 (centres unmarked) [Ethyl 3-Methyl-3-Phenylglycidate]	23.6	77.42		
CCOC(=O)c1ccccc1N [Ethyl Anthrailate]	39.71	61.95		
CCOC(=O)/C=C/c1ccccc1 [Ethyl Cinnemate]	0.45	70.82		
CCOC(=O)CSC [Ethyl Methylthio Acetate]	−0.06	55.69		
CCOc1cc(C=O)ccc1OC(=O)C(C)C [Ethyl vanillin isobutyrate]				Great reduction in bitter taste with no aftertaste. Slight vanilla character. Similar to vanillin isobutyrate
CCOC(=O)C1OC1c1ccccc1 (centres unmarked) [Ethyl-3-Phenylglycinate]	12.13	54.22		
C=C/C(C)=C/C/C=C(\C)CCC=C(C)C [Farmesene]	−0.32	90.8		
CC(=O)OC1C2(C)CCC(C2)C1(C)C (centres unmarked) [Fenchyl Acetate]	−0.1	59.08		
CCCC1CCC(=O)O1 (centres unmarked) [Gamma Heptalactone]	1.18	51.03		
CC(=O)/C(C)=C/C1C(C)=CCCC1(C)C (centres unmarked) [Gamma Methyl Ionone]	4.96	23.55		
CCCCCC(C)=O [Heptanone]	−0.04	69.5		
